This passage reports EC50 and IC50 results from patent US8598314B2 (priority 2007, dated 2013).

Assay [1] concerns the target T1, endogenously expressed GLP-1 receptor, thyroid c-cell carcinoma line 6-23 (Rattus norvegicus, UniProt P32301).
T1 construct: the endogenously expressed GLP-1 receptor; endogenous in cells; host or cells: thyroid c-cell carcinoma line 6-23
T1 sequence (P32301 22-463): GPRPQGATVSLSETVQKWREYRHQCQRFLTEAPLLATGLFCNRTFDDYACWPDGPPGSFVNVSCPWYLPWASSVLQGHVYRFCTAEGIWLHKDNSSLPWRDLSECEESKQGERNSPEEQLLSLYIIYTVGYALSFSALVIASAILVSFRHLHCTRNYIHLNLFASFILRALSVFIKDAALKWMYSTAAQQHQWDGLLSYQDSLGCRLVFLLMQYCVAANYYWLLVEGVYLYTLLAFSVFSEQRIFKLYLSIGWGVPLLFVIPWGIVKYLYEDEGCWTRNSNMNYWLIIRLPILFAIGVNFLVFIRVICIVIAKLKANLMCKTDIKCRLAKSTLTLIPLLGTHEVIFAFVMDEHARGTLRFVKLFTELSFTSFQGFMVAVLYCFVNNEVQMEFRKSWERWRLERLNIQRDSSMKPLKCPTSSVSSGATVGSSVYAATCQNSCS
Kind of assay: GLP-1 cyclase whole cell cAMP assay. The class given is cell-based. As to the method:
Cells from the thyroid c-cell carcinoma line 6-23 were grown to confluence and harvested by treatment with Versene ([…]). […] Accumulation of cAMP was measured following 30′ conjugate or control agent treatment using an HTRF® cell-based cAMP assay kit (Cisbio-US, Inc., Bedford, Mass.) in 384-well format. The compounds were tested at final concentrations from 1 μM to 10 pM. The cell-conjugate mixture was incubated for 30′ at room temperature, at which time the reaction was terminated by the addition of kit-provided α-cAMP Cryptate solution. Plates were then sealed and stored at room temperature overnight to allow components to come to full equilibrium. cAMP content was then measured by time resolved fluorescence.
For orientation: cAMP levels reflect the balance of adenylyl cyclase and phosphodiesterase activity.

Assay [2] addresses T2, ACE from rabbit lung (Oryctolagus cuniculus, UniProt P12822).
T2 construct: ACE from rabbit lung; purchased Sigma Chemical Co; host or cells: rabbit lung tissue
T2 sequence (P12822 34-1310): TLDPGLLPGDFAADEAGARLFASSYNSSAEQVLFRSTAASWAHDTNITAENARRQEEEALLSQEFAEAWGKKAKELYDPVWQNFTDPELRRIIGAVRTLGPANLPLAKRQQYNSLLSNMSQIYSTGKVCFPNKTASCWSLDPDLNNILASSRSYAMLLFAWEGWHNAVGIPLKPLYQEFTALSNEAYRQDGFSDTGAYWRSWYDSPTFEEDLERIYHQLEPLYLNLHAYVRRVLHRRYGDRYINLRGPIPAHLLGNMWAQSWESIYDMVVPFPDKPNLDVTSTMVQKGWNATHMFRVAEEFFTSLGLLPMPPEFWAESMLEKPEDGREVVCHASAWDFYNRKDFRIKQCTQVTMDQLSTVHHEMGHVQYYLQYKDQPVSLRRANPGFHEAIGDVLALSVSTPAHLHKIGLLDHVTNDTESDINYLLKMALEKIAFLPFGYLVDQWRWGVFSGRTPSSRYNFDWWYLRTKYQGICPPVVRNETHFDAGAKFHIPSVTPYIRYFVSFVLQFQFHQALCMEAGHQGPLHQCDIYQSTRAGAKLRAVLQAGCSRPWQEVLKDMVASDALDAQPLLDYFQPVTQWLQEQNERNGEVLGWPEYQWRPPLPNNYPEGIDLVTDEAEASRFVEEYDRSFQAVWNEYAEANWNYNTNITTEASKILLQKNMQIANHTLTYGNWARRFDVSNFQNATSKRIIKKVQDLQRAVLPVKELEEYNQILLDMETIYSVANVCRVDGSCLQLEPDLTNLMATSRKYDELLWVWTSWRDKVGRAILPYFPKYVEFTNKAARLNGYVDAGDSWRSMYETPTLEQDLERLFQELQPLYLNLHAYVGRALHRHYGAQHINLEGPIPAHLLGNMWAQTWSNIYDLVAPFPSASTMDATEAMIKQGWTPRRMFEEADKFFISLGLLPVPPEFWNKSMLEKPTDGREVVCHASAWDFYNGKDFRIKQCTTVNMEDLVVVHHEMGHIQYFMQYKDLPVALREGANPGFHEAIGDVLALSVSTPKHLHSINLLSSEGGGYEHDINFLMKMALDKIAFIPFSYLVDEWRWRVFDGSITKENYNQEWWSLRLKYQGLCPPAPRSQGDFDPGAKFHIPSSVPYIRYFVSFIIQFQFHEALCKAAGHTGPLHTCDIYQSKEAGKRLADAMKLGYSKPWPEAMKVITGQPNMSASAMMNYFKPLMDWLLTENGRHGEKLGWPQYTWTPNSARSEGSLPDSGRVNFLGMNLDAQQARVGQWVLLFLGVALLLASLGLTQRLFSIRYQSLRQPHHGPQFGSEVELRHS
The assay can be described thus: ACE inhibition assay. The class given is biochemical. On the procedure: Peptide-ACE peptidase inhibitor conjugate compounds were assessed in an ACE inhibition assay using purified ACE enzyme and chromogenic substrates. An ACE stock solution was prepared by dissolving 0.1 unit of enzyme (ACE from rabbit lung, Sigma Chemical Co., St. Louis, Mo.) in 0.640 mL of HEPES buffer (0.1 M, pH=8). A 2 mM stock solution of substrate (N-benzyloxycarbonyl-Phe-His-Leu-OH) dissolved in methanol. The ACE inhibitor compounds were dissolved in phosphate buffer (0.1 M, pH=8) at concentrations of 0.0, 1, 10, 20, 60 and 100 μM. For the inhibition assay, six 2 mL microcentrifuge tubes were prepared containing 1.45 mL of phosphate buffer pH=8, 0.05 mL of 10% NaCl and 0.015 mL of substrate solution. To each microcentrifuge tube was added 0.015 mL of one of the ACE inhibitor compound's stock solutions. The solutions were heated at 37° C. for about 5 minutes. The reaction was started by the addition of 5 μL of the ACE stock solution to each tube mixture (30 seconds in between). The reaction mixtures were incubated at 37° C. After 5 min, 10 min, 30 min and 60 min., aliquots of 100 μL were taken from each tube (each sample was taken in intervals of 30 seconds). Tubes containing the 100 μL sample were floated in a boiling water bath for 5 min. and then cooled. The reaction samples were then treated with 20 μL of 2M NaOH and 20 μL of 0.1% phthaldialdehyde solution. The tubes were shaken for 4 minutes and 10 μL of 6 M HCl were added. […] Initial rates were determined from linear portions of product release curves. Starting substrate concentration in all assays was 20 μM. Apparent binding constants (Kd^app or Ki^app) of inhibitors to ACE were determined by fitting inhibition curves (initial rate vs. inhibitor concentration) to equation:
[formula] where v0 is reaction rate in the absence of inhibitor and [I]-inhibitor concentration. Fits were done by least-squares method using KaleidaGraph 3.6 (Synergy Software, Reading Pa.).

Setting [3] is: substrate N-benzyloxycarbonyl-Phe-His-Leu-OH 20 μM, read-out: ACE inhibition IC50.

Each structure is given as a SMILES string. Like-named read-outs stand apart in the source and are kept apart here.

On to `CC[C@H](C)[C@H](NC(=O)[C@H](Cc1ccccc1)NC(=O)[C@H](CC(C)C)NC(=O)[C@H](CCCNC(=N)N)NC(=O)[C@@H](NC(=O)[C@H](C)NC(=O)[C@H](CCC(=O)O)NC(=O)[C@H](CCC(=O)O)NC(=O)[C@H](CCC(=O)O)NC(=O)[C@H](CC(C)C)NC(=O)[C@H](CCC(N)=O)NC(=O)[C@H](CCCCN)NC(=O)[C@H](CO)NC(=O)[C@H](CC(C)C)NC(=O)[C@H](CC(=O)O)NC(=O)[C@H](CO)NC(=O)[C@@H](NC(=O)[C@H](Cc1ccccc1)NC(=O)[C@@H](NC(=O)CNC(=O)[C@H](CCC(=O)O)NC(=O)CNC(=O)[C@@H](N)Cc1c[nH]cn1)[C@@H](C)O)[C@@H](C)O)C(C)C)C(=O)N[C@@H](CCC(=O)O)C(=O)N[C@@H](Cc1c[nH]c2ccccc12)C(=O)N[C@@H](CC(C)C)C(=O)N[C@@H](CCCCN)C(=O)N[C@@H](CC(N)=O)C(=O)NCCCC(=O)NCCOCCOCC(=O)NCCCC(=O)NCCCC[C@H](NC(CCc1ccccc1)C(=O)O)C(=O)N1CCC[C@H]1C(=O)O` (some centres unmarked) [Compound 5605], for which the EC50 (commonly the concentration at which the effect is half-maximal) in assay [1] was found to be 1.24 nM. Further, the concentration for half-maximal inhibition (IC50) (usually the midpoint of a concentration-inhibition curve) in assay [2] (setting [3]) was found to be 300 nM.

The compound `CC[C@H](C)[C@H](NC(=O)[C@H](Cc1ccccc1)NC(=O)[C@H](CC(C)C)NC(=O)[C@H](CCCNC(=N)N)NC(=O)[C@@H](NC(=O)[C@H](C)NC(=O)[C@H](CCC(=O)O)NC(=O)[C@H](CCC(=O)O)NC(=O)[C@H](CCC(=O)O)NC(=O)[C@H](CC(C)C)NC(=O)[C@H](CCC(N)=O)NC(=O)[C@H](CCCCN)NC(=O)[C@H](CO)NC(=O)[C@H](CC(C)C)NC(=O)[C@H](CC(=O)O)NC(=O)[C@H](CO)NC(=O)[C@@H](NC(=O)[C@H](Cc1ccccc1)NC(=O)[C@@H](NC(=O)CNC(=O)[C@H](CCC(=O)O)NC(=O)CNC(=O)[C@@H](N)Cc1c[nH]cn1)[C@@H](C)O)[C@@H](C)O)C(C)C)C(=O)N[C@@H](CCC(=O)O)C(=O)N[C@@H](Cc1c[nH]c2ccccc12)C(=O)N[C@@H](CC(C)C)C(=O)N[C@@H](CCCCN)C(=O)N[C@@H](CC(N)=O)C(=O)NCCOCCOCCOCC(=O)NCCOCCOCC(=O)NCCCC[C@H](NC(CCc1ccccc1)C(=O)O)C(=O)N1CCC[C@H]1C(=O)O` (some centres unmarked) [Compound 5606] returned an EC50 in assay [1] of 0.23 nM. In assay [2] (setting [3]), the IC50 was 700 nM.

As to `CC[C@H](C)[C@H](NC(=O)[C@H](Cc1ccccc1)NC(=O)[C@H](CC(C)C)NC(=O)[C@H](CCCNC(=N)N)NC(=O)[C@@H](NC(=O)[C@H](C)NC(=O)[C@H](CCC(=O)O)NC(=O)[C@H](CCC(=O)O)NC(=O)[C@H](CCC(=O)O)NC(=O)[C@H](CC(C)C)NC(=O)[C@H](CCC(N)=O)NC(=O)[C@H](CCCCN)NC(=O)[C@H](CO)NC(=O)[C@H](CC(C)C)NC(=O)[C@H](CC(=O)O)NC(=O)[C@H](CO)NC(=O)[C@@H](NC(=O)[C@H](Cc1ccccc1)NC(=O)[C@@H](NC(=O)CNC(=O)[C@H](CCC(=O)O)NC(=O)CNC(=O)[C@@H](N)Cc1c[nH]cn1)[C@@H](C)O)[C@@H](C)O)C(C)C)C(=O)N[C@@H](CCC(=O)O)C(=O)N[C@@H](Cc1c[nH]c2ccccc12)C(=O)N[C@@H](CC(C)C)C(=O)N[C@@H](CCCCN)C(=O)N[C@@H](CC(N)=O)C(=O)NCCOCCOCCOCC(=O)NCCCC(=O)NCCCC[C@H](NC(CCc1ccccc1)C(=O)O)C(=O)N1CCC[C@H]1C(=O)O` (some centres unmarked) [Compound 5609], the EC50 in assay [1] came to 0.65 nM. The half-maximal inhibitory concentration (IC50) in assay [2] (setting [3]) turned out to be 1000 nM.

With `CC[C@H](C)[C@H](NC(=O)[C@H](Cc1ccccc1)NC(=O)[C@H](CC(C)C)NC(=O)[C@H](CCCNC(=N)N)NC(=O)[C@@H](NC(=O)[C@H](C)NC(=O)[C@H](CCC(=O)O)NC(=O)[C@H](CCC(=O)O)NC(=O)[C@H](CCC(=O)O)NC(=O)[C@H](CC(C)C)NC(=O)[C@H](CCC(N)=O)NC(=O)[C@H](CCCCN)NC(=O)[C@H](CO)NC(=O)[C@H](CC(C)C)NC(=O)[C@H](CC(=O)O)NC(=O)[C@H](CO)NC(=O)[C@@H](NC(=O)[C@H](Cc1ccccc1)NC(=O)[C@@H](NC(=O)CNC(=O)[C@H](CCC(=O)O)NC(=O)CNC(=O)[C@@H](N)Cc1c[nH]cn1)[C@@H](C)O)[C@@H](C)O)C(C)C)C(=O)N[C@@H](CCC(=O)O)C(=O)N[C@@H](Cc1c[nH]c2ccccc12)C(=O)N[C@@H](CC(C)C)C(=O)N[C@@H](CCCCN)C(=O)N[C@@H](CCC(N)=O)C(=O)NCC(=O)NCC(=O)N1CCC[C@H]1C(=O)N[C@@H](CO)C(=O)N[C@@H](CCCCN)C(=O)N[C@@H](CCC(=O)O)C(=O)N[C@H](C(=O)N[C@H](C(=O)N[C@@H](CO)C(=O)NCCCC(=O)NCCC(=O)NCCCC[C@H](NC(CCc1ccccc1)C(=O)O)C(=O)N1CCC[C@H]1C(=O)O)[C@@H](C)CC)[C@@H](C)CC` (some centres unmarked) [Compound 5716], the EC50 in assay [1] stood at 0.14 nM. The IC50 in assay [2] is 140 nM.
